The text below walks through data of paper PMC9503133, “In Vitro Release, Mucosal Permeation and Deposition of Cannabidiol from Liquisolid Systems: The Influence of Liquid Vehicles” (Pharmaceutics, 2022).

Several values for one entry are separate records, joined by “and”; a condition that tells them apart may be missing. Identical values can stand only once. Like-named read-outs stand apart in the source and are kept apart here. Marks after values point to notes of the source that are not given here.

Data set [1] is described as follows: CBD solubility in liquid vehicles (excess CBD, shaking 24 h, HPLC). Format: physicochemical. On the procedure: The solubility of CBD in the investigated liquids was examined by adding the excess mass of CBD into 1 g of each test liquid in a test tube. The mixture was sonicated (1 h) using an ultrasonicator (Model LUC-405, Daihan Labtech Co., Ltd., Namyangju-si, Korea) and agitated constantly (37 ± 0.5 °C, 24 h) using a shaking water bath (Model LSB-030S, Daihan Labtech Co., Ltd., Namyangju-si, Korea), and the supernatant was filtered through a 0.45 μm syringe filter. The obtained filtrate was weighed, diluted and quantified by HPLC assay. The CBD solubility in the terms of the mg of CBD per g of liquid was calculated.
The amount of CBD was assessed using a modified HPLC method. An Agilent series 1260 combined with an Agilent ZORBAX Eclipse Plus column (C18, 100 × 4.6 mm, 3.5 μm) (Agilent Technologies, Inc., Santa Clara, CA, USA.) was used. The chromatographic separation was attained in 10 min using an isocratic protocol with a mixture of water:acetonitrile (30:70 v/v) comprising 0.1% formic acid set at a 1.5 mL/min flow rate. The injection volume was 20 µL. The column temperature was set at 45 °C, while the UV detector was set to 220 nm.

On the set-up of data set [2]: method as in PMID 34774694, PMID 32882367. The conditions noted are these: ref [3],[4]; cited from earlier work.
For data set [3] the following is noted: cited from earlier work.

Usually solubility stands for the concentration that dissolves in the medium under given conditions. Consider `C=C(C)[C@@H]1CCC(C)=C[C@H]1c1c(O)cc(CCCCC)cc1O` [CBD, Cannabidiol], for which the “CBD Solubility” value is on record as 386.77 ± 48.85 ^b mg/g in data set [1] (in CM, 37 ± 0.5 °C); 579.46 ± 11.79 ^a mg/g in data set [1] (in DEGEE, 37 ± 0.5 °C); >1000 mg/g in data set [1] (in EtOH, 37 ± 0.5 °C); 540.31 ± 4.59 ^a mg/g in data set [1] (in OM, 37 ± 0.5 °C); 261.73 ± 39.33 ^c mg/g in data set [1] (in P20, 37 ± 0.5 °C); 342.18 ± 49.90 ^b mg/g in data set [1] (in PEG, 37 ± 0.5 °C). For the same compound, the “CBD Solubility” value is given as 521.04 ± 55.42 ^a mg/g in data set [1] (in PG, 37 ± 0.5 °C) and 0.09 ± 0.03 ^d mg/g in data set [1] (in glycerin, 37 ± 0.5 °C). Also, the solubility at 24 h was < 5 µg/mL in data set [1] (simulated saliva fluid (SSF), simulated saliva fluid pH 6.8, read-out: solubility of CBD in pH 6.8 SSF) and < 5 µg/mL in data set [1] (water, converted with the specific gravity of water, read-out: CBD solubility in water). For the same compound, the “calculated log n-octanol–water partition coefficient (Kow)” value in data set [2] is 8 and ~ 8. The “solubility of CBD in 50% EtOH” value in data set [3] (50% EtOH receiver medium, ref Casirahi et al. [44]) is 2200 ± 100 µg/mL. In addition, the water solubility in data set [3] (ref [3],[4]) is 5 ppm.
